Patent publication US9475802B2, “Inhibitors of viral replication, their process of preparation and their therapeutical uses” (LABORATOIRE BIODIM, priority 2012, dated 2016)

Each compound was assayed on NL4-3 strain of HIV-1 (assay: Inhibition of HIV replication: cyto-protection in Cell-Titer-Glo viability assay, MT4 cells infected with NL4-3 virus). Conditions: Human immunodeficiency virus 1, NL43, 120 h, concentration leading to 50% of cyto-protection, 5 days incubation, CellTiter-Glo luminescence.
Format: cell-based
Procedure: The antiviral activity, particularly against HIV, of compounds according to the invention is evaluated by the protocol described below.
Preparation of Virus Stock of the NL4-3 Strain of HIV-1 (Adachi et al, J Virol, 1986, 59(2):284-91).
The virus was prepared as described in Lopez et al (Lopez et al, Proc Natl Acad Sci USA., 2006, 103(40):14947-52, by transfecting 2×10^6 293 T cells (CRL-1573, ATCC) with following modifications: 6 μg of NL4-3 proviral DNA molecular clone were mixed with Fugene 6 transfection reagent from Roche, and used according to manufacturer's instructions. Forty eight hours later, transfected cell supernatants were harvested, filtered through 0.45-μm-pore-size filters, quantified for HIV-1 p24 antigen by using a Innotest HIV antigen mAb assay (Ingen) according to manufacturer's instructions, and used in infection experiments.
Serial dilutions of compounds to be tested were prepared in complete RPMI medium from 10 mM DMSO stock solutions, and distributed in a volume of 20 μL in 96 well Falcon 353072 Microtest™ tissue culture plate, in order to get 0.5% DMSO final concentration in each well, after the addition of infected cells. Control wells contained also 0.5% DMSO final concentration but no compound.
MT^4 cells (from the NIH AIDS Research and Reference Reagent Program) in RPMI complete medium were counted (10×10^6 cells per well in Falcon 353047 Multiwell™ 24 well) and infected for 2 hours at 37°, at a multiplicity of infection (moi) of 0.0001-0.00001. Cells were then centrifuged 3 min at 3000 rpm, and washed two times in 1 ml PBS to remove viruses that have not entered in cells. Infected cells were resuspended in complete RPMI at 1.25×10^6 cells/ml, and 80 μl of infected cells were distributed in each well containing compounds to be tested or control wells. The plates were then incubated at 37° for 5 days.
Assay Used to Measure the Inhibition of HIV Replication by the Compounds (According to (According to Gregg S. Jones et al., Antimicrobial Agents and Chemotherapy, 2009, 53 (3): 1194-1203).
After 5 days of incubation, 50 μl of CellTiter-Glo reagent (Promega Biosciences, Inc., Madison Wis., USA) were added to each well. Cell lysis was carried out at room temperature during 10 min, 150 μl of lysates were transferred in Packard Optiplate 96 well, and luminescence was read on a Fluoroskan (Thermo Scientific).
The EC50, or effective concentration 50, is the concentration of compound leading to 50% of cyto-protection in a Cell-Titer-Glo® viability assay based on MT^4 cells infected with NL4-3 virus (table 1).
`CC(C)(C)OC(C(=O)O)c1c(C(F)(F)F)ccc(-c2ccc(N)cc2)c1-c1ccc2c(c1)CCCO2` (stereo not drawn) [Example 20, 2-[3-(4-aminophenyl)-2-(3,4-dihydro-2H-1-benzopyran-6-yl)-6-(trifluoromethyl)phenyl]-2-(tert-butoxy)acetic acid] was tested, and the EC50 was 0.15 µM.
For `CC(C)(C)OC(C(=O)O)c1c(C(F)(F)F)ccc(-c2ccc(=O)n(CC3CCC3)c2)c1-c1ccc2c(c1)CCCO2` (stereo not drawn) [Example 30, 2-(tert-butoxy)-2-{3-[1-(cyclobutylmethyl)-6-oxo-1,6-dihydropyridin-3-yl]-2-(3,4-dihydro-2H-1-benzopyran-6-yl)-6-(trifluoromethyl)phenyl}acetic acid], the EC50 was 0.067 µM.
Work on `CC(C)(C)OC(C(=O)O)c1c(C(F)(F)F)ccc(-c2cccs2)c1-c1ccc2c(c1)CCCO2` (stereo not drawn) [Example 7, 2-(tert-butoxy)-2-[2-(3,4-dihydro-2H-1-benzopyran-6-yl)-3-(thiophen-2-yl)-6-(trifluoromethyl)phenyl]acetic acid] yielded an EC50 of 0.3 µM.
Work on `CC(C)(C)OC(C(=O)O)c1c(C(F)(F)F)ccc(-n2cc(Br)cn2)c1-c1ccc2c(c1)CCCO2` (stereo not drawn) [Example 9, 2-[3-(4-bromo-1H-pyrazol-1-yl)-2-(3,4-dihydro-2H-1-benzopyran-6-yl)-6-(trifluoromethyl)phenyl]-2-(tert-butoxy)acetic acid] yielded an EC50 of 0.36 µM.
`Cn1cc(-c2ccc(C(F)(F)F)c(C(OC(C)(C)C)C(=O)O)c2C2=CCC(C)(C)CC2)cn1` (stereo not drawn) [Example 15, 2-(tert-butoxy)-2-[2-(4,4-dimethylcyclohex-1-en-1-yl)-3-(1-methyl-1H-pyrazol-4-yl)-6-(trifluoromethyl)phenyl]acetic acid] was tested, and the EC50 was 0.15 µM.
`CCCc1cccc(-c2ccc(C(F)(F)F)c(C(OC(C)(C)C)C(=O)O)c2-c2ccc3c(c2)CCCO3)c1` (stereo not drawn) [Example 29, 2-(tert-butoxy)-2-[2-(3,4-dihydro-2H-1-benzopyran-6-yl)-3-(3-propylphenyl)-6-(trifluoromethyl)phenyl]acetic acid] showed an EC50 of 0.43 µM.
`CC(C)(C)OC(C(=O)O)c1c(C(F)(F)F)ccc(-c2ccc(C(N)=O)cc2)c1-c1ccc2c(c1)CCCO2` (stereo not drawn) [Example 13, 2-(tert-butoxy)-2-[3-(4-carbamoylphenyl)-2-(3,4-dihydro-2H-1-benzopyran-6-yl)-6-(trifluoromethyl)phenyl]acetic acid] gave an EC50 of 0.83 µM.
`CC(C)Cn1cc(-c2ccc(C(F)(F)F)c(C(OC(C)(C)C)C(=O)O)c2-c2ccc3c(c2)CCCO3)ccc1=O` (stereo not drawn) [Example 32, 2-(tert-butoxy)-2-[2-(3,4-dihydro-2H-1-benzopyran-6-yl)-3-[1-(2-methylpropyl)-6-oxo-1,6-dihydropyridin-3-yl]-6-(trifluoromethyl)phenyl]acetic acid] was tested, and the EC50 was 0.085 µM.
In the case of `CC(C)(C)OC(C(=O)O)c1c(C(F)(F)F)ccc(-n2ccc(-c3ccccc3)n2)c1-c1ccc2c(c1)CCCO2` (stereo not drawn) [Example 5, 2-(tert-butoxy)-2-[2-(3,4-dihydro-2H-1-benzopyran-6-yl)-3-(3-phenyl-1H-pyrazol-1-yl)-6-(trifluoromethyl)phenyl]acetic acid], the EC50 is reported as 0.76 µM.
In the case of `CC(C)(C)OC(C(=O)O)c1c(C(F)(F)F)ccc(-c2cccc(N)c2)c1-c1ccc2c(c1)CCCO2` (stereo not drawn) [Example 23, 2-[3-(3-aminophenyl)-2-(3,4-dihydro-2H-1-benzopyran-6-yl)-6-(trifluoromethyl)phenyl]-2-(tert-butoxy)acetic acid], the EC50 is reported as 0.19 µM.
For `CC(C)(C)OC(C(=O)O)c1c(C(F)(F)F)ccc(-c2ccncc2)c1-c1ccc2c(c1)CCCO2` (stereo not drawn) [Example 2, 2-(tert-butoxy)-2-[2-(3,4-dihydro-2H-1-benzopyran-6-yl)-3-(pyridin-4-yl)-6-(trifluoromethyl)phenyl]acetic acid], the EC50 was 0.25 µM.
`CC(C)(C)OC(C(=O)O)c1c(C(F)(F)F)ccc(-n2cc(Cl)cn2)c1-c1ccc2c(c1)CCCO2` (stereo not drawn) [Example 10, 2-[3-(4-chloro-1H-pyrazol-1-yl)-2-(3,4-dihydro-2H-1-benzopyran-6-yl)-6-(trifluoromethyl)phenyl]-2-(tert-butoxy)acetic acid] gave an EC50 of 0.48 µM.
For `CC(=O)Nc1ccc(-c2ccc(C(F)(F)F)c(C(OC(C)(C)C)C(=O)O)c2-c2ccc3c(c2)CCCO3)cc1` (stereo not drawn) [Example 21, 2-(tert-butoxy)-2-[3-(4-acetamidophenyl)-2-(3,4-dihydro-2H-1-benzopyran-6-yl)-6-(trifluoromethyl)phenyl]acetic acid], the EC50 was 0.17 µM.
`CC(C)(C)OC(C(=O)O)c1c(C(F)(F)F)ccc(-c2ccncc2F)c1-c1ccc2c(c1)CCCO2` (stereo not drawn) [Example 17, 2-(tert-butoxy)-2-[2-(3,4-dihydro-2H-1-benzopyran-6-yl)-3-(3-fluoropyridin-4-yl)-6-(trifluoromethyl)phenyl]acetic acid] showed an EC50 of 0.25 µM.
For `COc1ccc(-c2ccc(C(F)(F)F)c(C(OC(C)(C)C)C(=O)O)c2-c2ccc3c(c2)CCCO3)cc1` (stereo not drawn) [Example 8, 2-(tert-butoxy)-2-[2-(3,4-dihydro-2H-1-benzopyran-6-yl)-3-(4-methoxyphenyl)-6-(trifluoromethyl)phenyl]acetic acid], the EC50 was 0.24 µM.
For `CCCn1cc(-c2ccc(C(F)(F)F)c(C(OC(C)(C)C)C(=O)O)c2-c2ccc3c(c2)CCCO3)ccc1=O` (stereo not drawn) [Example 25, 2-(tert-butoxy)-2-[2-(3,4-dihydro-2H-1-benzopyran-6-yl)-3-(6-oxo-1-propyl-1,6-dihydropyridin-3-yl)-6-(trifluoromethyl)phenyl]acetic acid], the EC50 was 0.22 µM.
For `CC(C)(C)OC(C(=O)O)c1c(C(F)(F)F)ccc(-c2ccc(=O)n(CCC3CC3)c2)c1-c1ccc2c(c1)CCCO2` (stereo not drawn) [Example 31, 2-(tert-butoxy)-2-{3-[1-(2-cyclopropylethyl)-6-oxo-1,6-dihydropyridin-3-yl]-2-(3,4-dihydro-2H-1-benzopyran-6-yl)-6-(trifluoromethyl)phenyl}acetic acid], the EC50 was 0.26 µM.
In the case of `CC(C)(C)OC(C(=O)O)c1c(C(F)(F)F)ccc(-c2cccn(CC3CCC3)c2=O)c1-c1ccc2c(c1)CCCO2` (stereo not drawn) [Example 38, 2-(tert-butoxy)-2-{3-[1-(cyclobutylmethyl)-2-oxo-1,2-dihydropyridin-3-yl]-2-(3,4-dihydro-2H-1-benzopyran-6-yl)-6-(trifluoromethyl)phenyl}acetic acid], the EC50 is reported as 0.13 µM.
Work on `Cn1cc(-c2ccc(C(F)(F)F)c(C(OC(C)(C)C)C(=O)O)c2-c2ccc3c(c2)CCCO3)cn1` (stereo not drawn) [Example 4, 2-(tert-butoxy)-2-[2-(3,4-dihydro-2H-1-benzopyran-6-yl)-3-(1-methyl-1H-pyrazol-4-yl)-6-(trifluoromethyl)phenyl]acetic acid] yielded an EC50 of 0.12 µM.
`CC(C)(C)OC(C(=O)O)c1c(C(F)(F)F)ccc(-c2ccc(=O)n(CC3CC3)c2)c1-c1ccc2c(c1)CCCO2` (stereo not drawn) [Example 27, 2-(tert-butoxy)-2-{3-[1-(cyclopropylmethyl)-6-oxo-1,6-dihydropyridin-3-yl]-2-(3,4-dihydro-2H-1-benzopyran-6-yl)-6-(trifluoromethyl)phenyl}acetic acid] gave an EC50 of 0.079 µM.
`CC(C)(C)OC(C(=O)O)c1c(C(F)(F)F)ccc(-c2ccc(=O)n(Cc3ccccc3)c2)c1-c1ccc2c(c1)CCCO2` (stereo not drawn) [Example 26, 2-[3-(1-benzyl-6-oxo-1,6-dihydropyridin-3-yl)-2-(3,4-dihydro-2H-1-benzopyran-6-yl)-6-(trifluoromethyl)phenyl]-2-(tert-butoxy)acetic acid] was tested, and the EC50 was 0.44 µM.
